Assay results taken from PubChem BioAssay AID1259418 (Broad Institute, 2018).
Values joined by “and” are separate entries in the source; they are usually repeats but may differ in a detail not shown here. Equal entries are not always repeated. Records with an inconclusive call do not appear. Active and inactive are the calls of the source.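 Rule for the calls: active = fitted half-maximal concentration of signal decrease at or below twice the sample's top tested concentration; inconclusive = flat curve between -70 and -30 percent, or poor fit; inactive = flat within 30 percent, signal rise, or potency above limit.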

Target: T. gondii ME49Luc in IFN-y HeLa, luciferase, 72 h
Test: inhibitors of Toxoplasma growth in IFN-γ-primed HeLa – cell-based, ME49Luc, luciferase, 72 h, dose response (AID 1259418)

Row | Structure (SMILES) | AC50
1 | COc1ccc(C#Cc2ccc([C@@H]3[C@H]4CN(C(=O)NC(C)C)CC(=O)N4[C@H]3CO)cc2)cc1 | 9.33 µM and 7.45 µM
2 | CC(C)NC(=O)N1CC(=O)N2[C@H](CO)[C@@H](c3ccc(/C=C/c4ccccc4)cc3)[C@H]2C1 | 26.5 µM and 8.87 µM
3 | CC(C)Cc1ccc(S(=O)(=O)N2CCC3(CC2)NCCN=C3NCc2ccc3c(c2)OCO3)cc1 | 5.76 µM
4 | O=C(CC1CC1)N1CC[C@@H]2[C@@H](CO)Nc3ccc(-c4ccc(F)cc4)cc3[C@@H]21 | 21.1 µM
5 | CCOc1ccccc1-c1nc(CN(c2cccc(OC)c2)S(=O)(=O)c2ccc(C)cc2)c(C)o1 | 9.59 µM
6 | Cc1ccc(S(=O)(=O)Nc2ccc3c(c2)C(=O)N([C@H](C)CO)C[C@H](C)[C@H](CN(C)Cc2ccc(C(F)(F)F)cc2)O3)cc1 | 13.1 µM
7 | COc1ccc2c(c1)NC1(CCN(C(=O)CCc3cc(OC)c(OC)c(OC)c3)CC1)c1cccn1-2 | > 39 µM (inactive)
8 | CCc1ccc(NS(=O)(=O)c2cc3c4c(c2)CCC(=O)N4CCC3)cc1 | 37.7 µM
9 | O=C(CCC1N=C2c3ccccc3N=C(SCc3ccc(Cl)cc3)N2C1=O)NCc1cccs1 (configuration not stated) | 14.9 µM
10 | C1=CC[C@H]2CN(c3ncnc4[nH]ccc34)C[C@H]2C1 | 13.1 µM
11 | O=C1CCc2cc(S(=O)(=O)N3CCc4ccccc4C3)cc3c2N1CCC3 | 31.1 µM
12 | Cc1ccc(CSC2=Nc3ccccc3C3=NC(CC(=O)NCc4ccc5c(c4)OCO5)C(=O)N23)cc1 (configuration not stated) | > 39 µM (inactive)
13 | COc1cccc(C(=O)Nc2ccc3c(c2)C(=O)N(C)[C@@H]2CC[C@H](CC(=O)N[C@H](C)c4ccccc4)O[C@@H]2CO3)c1 | 19.4 µM
14 | COc1ccc(N(Cc2nc(-c3ccccc3OC)oc2C)S(=O)(=O)c2cccs2)cc1 | 3.72 µM
15 | COC(=O)C[C@H]1CC[C@@H]2[C@@H](COc3ccc(NC(=O)Nc4cccc(C#N)c4)cc3C(=O)N2C)O1 | 27.5 µM and 18.5 µM
16 | O=C1c2cccc(O)c2C(=O)c2c(O)cc(CO)cc21 | 16.6 µM
17 | COc1cccc(-c2nc3c(s2)CN(S(=O)(=O)c2cc(C)ccc2C)CC3)c1 | 6.71 µM and 7.85 µM
18 | COc1ccc(N(Cc2nc(-c3ccc(OC)c(OC)c3)oc2C)S(=O)(=O)c2ccccc2)cc1 | 9.25 µM
19 | N#C[C@H]1[C@H](c2ccc(C#Cc3ccccc3F)cc2)[C@@H](CO)N1C(=O)c1cccnc1 | > 39 µM (inactive)
20 | CN1C(=O)c2cc(NC(=O)c3cccc(F)c3)ccc2OC[C@H]2O[C@@H](CC(=O)NCC3CCCCC3)CC[C@H]21 | 18.6 µM and 10.5 µM and 24.5 µM
21 | CCCNC(=O)[C@@H]1[C@@H](CO)[C@@H]2Cn3c(ccc(/C=C/c4ccccc4)c3=O)[C@@H]2N1CC1CC1 | 18.5 µM
22 | FC(F)(F)C1CN(c2cc(-c3ccccc3)nc3ccccc23)CCO1 (configuration not stated) | 25.1 µM
23 | O=S(=O)(c1cccs1)N1CCCCN2[C@H](CO)[C@@H](c3ccc(/C=C/c4ccccc4)cc3)[C@@H]2C1 | 22 µM
24 | COc1cccc(-c2nc3c(s2)CN(S(=O)(=O)c2ccccc2C)CC3)c1 | 6.95 µM and 17.2 µM

Row | Structure (SMILES) | AC50
25 | COc1ccc(-c2nc(NCCCN3CCOCC3)c3ccccc3n2)cc1 | 16.6 µM
26 | COc1ccc(-c2nc(N3CCOCC3)c3ccccc3n2)cc1 | 36.1 µM
27 | Cc1ccc(NC(=O)N2CCN(Cc3nc(-c4cccc(Cl)c4)oc3C)CC2)cc1Cl | 15.7 µM
28 | CCCNC(=O)N1C[C@@H]2N[C@H](C1)C2c1ccc(-c2ccccc2C)cc1 (some centres not stated) | 18.1 µM
29 | N#Cc1ccc(-c2ccc([C@@H]3[C@@H](CO)N4C(=O)CNC[C@H]34)cc2)cc1 | 11.8 µM
30 | CC(C)c1cc(C2CCCN2Cc2c[nH]c3ccccc23)on1 (configuration not stated) | 7.79 µM and 14 µM
31 | COc1ccccc1Cn1ncc2c1CCCC2NC(=O)c1cc(-c2cccs2)no1 (configuration not stated) | 14.1 µM
32 | Cc1sc2ncnc(Oc3ccc(OCc4ccccc4)cc3)c2c1C | 7.63 µM and 8.8 µM
33 | O=C(Cc1ccc(Cl)cc1)N1CC2(CCN(Cc3ccc(C(F)(F)F)cc3)CC2)C1 | 22.2 µM
34 | Cc1ccc(CNC2=NCCNC23CCN(S(=O)(=O)c2ccc(Cl)s2)CC3)cc1 | 5.08 µM
35 | COCC(=O)Nc1ccc(-c2nc(-c3cc(C)ccc3C)co2)cc1 | > 39 µM (inactive)
36 | N#Cc1cccc(-c2ccc([C@@H]3[C@H]4CN(Cc5ccccc5F)CCCCN4[C@H]3CO)cc2)c1 | 16.5 µM
37 | CCCCNC(=O)CCC1N=C2c3ccccc3N=C(SCc3ccc(Cl)cc3)N2C1=O (configuration not stated) | 17 µM
38 | Cc1ccccc1N(Cc1nc(-c2ccccc2)oc1C)S(=O)(=O)c1cccs1 | > 39 µM (inactive)
39 | COc1ccc(-c2nc(Nc3ccc(OC)cc3OC)c3ccccc3n2)cc1 | 13.3 µM
40 | O=C(CCCCCNc1nc(=S)[nH]c2ccccc12)N1CCC(O)(c2cccc(C(F)(F)F)c2)CC1 | > 39 µM (inactive)
41 | O=C(c1cccc(F)c1)N1CCCCN2[C@H](C1)[C@H](c1ccc(C#CC3(O)CCCC3)cc1)[C@@H]2CO | 9.01 µM
42 | O=C(Cc1ccncc1)N1CCCCN2[C@@H](CO)[C@@H](c3ccc(C#Cc4ccccc4F)cc3)[C@@H]2C1 | 20.9 µM and 12.3 µM
43 | Cc1ccc(-c2cc(C(F)(F)F)nn2-c2ccc(S(N)(=O)=O)cc2)cc1 | 22.2 µM
44 | CCOc1ccc(-c2nc(CN(c3ccc(OC)cc3)S(=O)(=O)c3ccccc3)c(C)o2)cc1 | 21.1 µM
45 | COc1cccc(NC(=O)N2CC(=O)N3[C@H](C2)[C@@H](c2ccc(C#CCC4CCCC4)cc2)[C@@H]3CO)c1 | 17 µM and 3.35 µM
46 | CCC(C(=O)N1CCC2(CC1)Nc1ccc(Cl)cc1-n1cccc12)c1ccccc1 (configuration not stated) | > 39 µM (inactive)
47 | Cc1ccccc1-c1nc(CN2CCN(C(=O)Nc3ccc(F)cc3)CC2)c(C)o1 | > 39 µM (inactive)
